Literature values, collected in patent publication US6713027B2, “Ozonator for sterilizing, decontaminating, disinfecting, and/or sanitizing surgical instruments” (Electroclave, priority 2001, dated 2004).

System: pathogenic bacteria and viruses
Details: in water; compared with chlorine

O=[O+][O-] [O3, ozone]
rate of eliminating pathogenic bacteria and viruses from water relative to Cl (chlorine): 3,125 times
